Reference: patent US9573975B2, “Melanoma antigen peptide and uses thereof” (INSERM (INSTITUT NATIONAL DE LA SANTE ET DE LA RECHERCHE …, priority 2012, dated 2017)

Key:
Format in all cases: cell-based, human
[1] = tested on: CD4 T cells in PBMC from melanoma patients; test: PBMC from melanoma patients stimulated with MELOE-1, restimulated with peptides, CD4/IFN-γ and CD4/IL4 staining
Procedure: FIG. 2: (A) Percentages of cytokine producing CD4 T cells among positive microcultures. Fourteen days after PBMC stimulation with MELOE-1 whole polypeptide (2-46), microcultures were re-stimulated with each indicated peptide during 5 hours. IFN-γ (left panel) and IL4 (right panel) production was then assessed by a triple labeling IFN-γ-IL4-CD4. Results were analyzed with a non-parametric test (Kruskal-Wallis) followed by a Dunns post-test. (B) Frequency of microcultures containing CD4 T cells specific for MELOE-1 peptides (assessed by IFN-γ or IL4 intracellular staining after re-stimulation with the 3 indicated peptides). 576 microcultures (from 10 melanoma patients) were analyzed by a contingency table followed by a Fisher exact test.
PBMC from melanoma patients were stimulated with 10 μM of MELOE-1. After 14 days, the presence of CD4 T cells specific for the different regions of MELOE-1 was assessed by restimulating cells with MELOE-12-21, MELOE-111-30 and MELOE-122-46 peptides, followed by CD4/IFN-γ double staining for the detection of Th1 responses, and by CD4/IL4 double staining for Th2 responses. Between brackets is indicated the mean % of cytokine producing CD4 T cells, in positive microcultures.
(§1) PBMC from healthy donors or melanoma patients (2·10^5 cells/well) were cultured for 14 days with 10 μM of MELOE-1 whole antigen (46 amino acids) in RPMI medium supplemented with 8% HS, 50 IU/ml of rIL-2 (Chiron, France) and L-Glutamin, in 96-well multiplates. Micro cultures were then restimulated individually with each overlapping peptide (MELOE-12-21, MELOE-111-30, MELOE-118-37, MELOE-126-46 or MELOE-122-46 for melanoma patients) in the presence of 10 μg/mL brefeldin A for 5 hours and the percentage of CD4^+ specific T cells was assessed by TNF-α, IFN-γ or IL-4 intracellular staining A negative control without peptide was included in all experiments.
(§2) Lymphocytes were stimulated for 5 hours in the presence of brefeldin A (10 μg/mL) either with peptide alone (10 μM) in an autopresentation assay or with B-EBV or HLA-class II expressing melanoma cells pulsed 2 hours with the cognate peptide, at a ratio 1:2. In some experiments, blocking mAb against HLA-DP (clone B7.21 from Dr Charron, UMR940, Paris), HLA-DQ (clone SPVL3, Beckman Coulter) or HLA-DR (clone L243, BD Biosciences) were added at a concentration of 12.5 μg/ml. Cells were then stained with APC-conjugated anti-CD4 mAb, fixed with 4% paraformaldehyde, labeled with PE-conjugated anti-cytokine mAb and analyzed by flow cytometry.
In order to confirm the immunogenicity of each MELOE-1 regions in melanoma patients, we stimulated melanoma patients PBMC with the MELOE-1 whole protein, and tested the reactivity of stimulated lymphocytes towards the three most immunogenic regions: 2-21, 11-30, and 22-46. For this study, instead of challenging microcultures with the 18-37 peptide, that appeared poorly immunogenic, we extended the C-terminus region from 26-46 to 22-46, in order to also detect responses to our previously described HLA-DR11-restricted epitope (24-37). […] We tested the induction of CD4 specific responses from MELOE-1 stimulated PBMC of 10 melanoma patients. We documented CD4 responses specific for the central region of MELOE-1 (11-30) for 7/9 patients, whereas responses specific for MELOE-12-21 and MELOE-122-46 were respectively detected in 4/9 and 5/9 patients (Table III). These responses were mainly Th1 responses (IFN-g production) while less frequent Th2 responses specific for the three regions of MELOE-1 were detected in 3/9 patients for MELOE-12-21, 2/9 patients for MELOE-111-30 and 5/9 patients for MELOE-122-46 (Table III). […] Concerning Th2 responses, much less frequent, the C-term region appeared to induce more frequently the growth of IL-4 producing CD4 T cells than the two other regions (FIG. 2A). […]

[2] = tested on: CD4 T cells in PBMC from healthy donors; test: PBMC from healthy donors stimulated with MELOE-1, restimulated with overlapping peptides, CD4/TNF-α staining; settings: for healthy donors in whom CD4 responses against the region were detected: seven healthy donors, TNFα production
Procedure: FIG. 1: (A) Percentages of TNF-α producing CD4 T cells among positive microcultures. Fourteen days after PBMC stimulation with MELOE-1 whole polypeptide (2-46), microcultures were re-stimulated with each indicated peptide during 5 hours. TNF-α production was then assessed by a double labeling TNF-α-CD4. Results were analyzed with a non-parametric test (Kruskal-Wallis) followed by a Dunns post-test. (B) Frequency of microcultures containing CD4 T cells specific for MELOE-1 peptides (assessed by TNF-α intracellular staining after re-stimulation with the 4 indicated peptides). 624 microcultures (from 7 healthy donors) were analyzed by a contingency table followed by a Fisher exact test.
PBMC from healthy donors were stimulated with 10 μM of MELOE-1. After 14 days, the presence of CD4 T cells specific for the different regions of MELOE-1 was assessed by restimulating cells with MELOE-12-21, MELOE-111-30, MELOE-118-37 and MELOE-126-46 peptides, followed by CD4/TNF-α double staining and flow cytometry analysis. Between brackets is indicated the mean % of TNF-α producing CD4 T cells, in positive microcultures. NA: not available.
as §1, §2
Our purpose was to look for the existence of class II helper epitopes all along MELOE-1 sequence (SEQ ID NO: 20), in order to document the immunogenicity of the different regions of this melanoma antigen. We stimulated 2·10^7 PBMC from seven healthy donors with MELOE-1 whole antigen and tested, after a 14-day culture period the presence of CD4 T cells specific for each region of the protein. Microcultures were screened for TNFα production by CD4+ T cells, after restimulation with four MELOE-1 derived overlapping peptides (Table I), in an autopresentation assay. […] On the contrary, the central region 18-37, containing an already described DR11-restricted epitope (24-37) located just at the end of this 20-mer peptide (Rogel et al., 2011), induced specific responses in microcultures deriving from only 2/7 donors (HD9 and HD17, both expressing the DR11 element). In these two donors, we detected 6 and 7% of positive microcultures, containing between 0.6 to 3.7% of TNFα producing CD4 T cells.

[3] = tested on: MELOE-126-46 specific CD4 T cell clone (4E2-DQβ1*0201); test: Peptide stimulation of CD4 T cell clone 4E2, intracellular cytokine staining
Procedure: (§3) FIG. 5: Minimal peptides recognized by MELOE-1 specific CD4 T cell clones. MELOE-1 specific CD4 T cell clones were incubated with various concentrations of the indicated peptides during 5 hours in presence of Brefeldin A. TNF-α production was assessed by intracellular labeling with an anti-TNF-α specific antibody. The core peptide sequence is indicated in bold on each figure panel, and black circles illustrate the best fitting peptide.
as §2
(§4) We also documented the T helper profile of each T cell clone, by stimulating the CD4 T cell clones with the cognate peptide, and analyzing cytokine production. All the clones expressed Th1 cytokines (TNFα, IFNγ, IL2 and GM-CSF). On the contrary, these clones differ in their expression of Th2 cytokines. Indeed, the two DQ2 restricted T cell clones (9C12 and 4E2) and the DR1 restricted one (5F9) also strongly express two Th2 cytokines (IL4, and IL13), whereas the DR11-restricted T cell clone only weakly expressed IL4 (Table IV). None of the CD4 T cell expresses IL10 or IL5 at a significant level.
(§5) Three shorter peptides were better recognized by the DQ2-restricted 9C12 T cell clone, the shortest one being MELOE-17-19 (13-mer), recognized with an EC50 of 100 nM. The deletion of the two amino acids in C-term strongly reduces T cell clone recognition. […] Nonetheless all of these clones recognized a series of shortened peptides, thus we cannot formally assess that the shortest ones will be the exact peptides naturally presented on class II molecules.

[4] = tested on: MELOE-1 specific T cell clones; test: HLA restriction of MELOE-1 specific T cell clones (anti-HLA blocking antibodies, HLA-matched B-EBV cell lines); settings: T cell clone 4E2 (from HD25)
Procedure: FIG. 3: HLA-restricting element of MELOE-1 specific T cell clones and reactivity against HLA-matched melanoma cell lines. The HLA restriction of MELOE-1 specific T cell clones was first assessed using anti-HLA blocking antibodies (upper panel). T cell clones were stimulated for 5 hours in the presence of brefeldin A (10 μg/mL) either with peptide alone (10 μM) in an autopresentation assay and in presence or not of blocking antibodies at a concentration of 12.5 μg/mL. HLA restriction was confirmed with HLA-matched B-EBV cell lines pulsed 2 hrs with the cognate peptide, at a ratio 1:2 (middle panel). Reactivity of each T cell clone against HLA-class II expressing melanoma cells was assessed, in presence or not of exogeneous peptide (lower panel). After 5 hours of stimulation, cells were then stained with APC-conjugated anti-CD4 mAb, fixed with 4% paraformaldehyde, labeled with PE-conjugated anti-TNF-α mAb and analyzed by flow cytometry.
as §2
In order to formally characterize the recognized epitopes, we derived CD4 T cell clones specific for each region of MELOE-1 by limiting dilution, from microcultures of healthy donors or melanoma patients, containing at least 0.5% of specific CD4 T cells. We succeeded to derive CD4 specific T cell clones from HD17, HD22, HD25 and Pt≠3 microcultures, which were reactive against MELOE-12-21 (HD22), MELOE-111-30 (HD17 and Pt≠3) and MELOE-126-46 (HD25). From each cloning experiment, we obtained between one and ten reactive CD4 T cell clones, that turned out to be the same clonotype after CDR3B sequencing (Table IV). A single CD4 T cell clone for each specificity was used for further experiments. The HLA-restriction was determined for each T cell clone, first by using HLA-class II blocking monoclonal antibodies (FIG. 3, upper panel), and further by testing the recognition of HLA-matched B-EBV cell lines loaded with each recognized long peptide (FIG. 3 middle panel). The two T cell clones named 9C12 and 4E2, derived from HD22 and HD25 and specific for MELOE-12-21 and MELOE-126-46 were restricted by the HLA-DQβ1*0202 and the DQβ1*0201 molecules respectively. […]

[5] = tested on: MELOE-111-30 specific CD4 T cell clone (5F9-DRβ1*0101); test: Peptide stimulation of CD4 T cell clone 5F9, intracellular cytokine staining; settings: DRβ1*0101 restricted T cell clone (5F9)
Procedure: as §3, §2, §4, §5

[6] = clone 4E2, cognate peptide 10 μM, 5 hours

AACPPWHPSERISSTLNDECWPASL [MELOE-122-46]
mean % of cytokine producing CD4 T cells, in positive microcultures (IFN-γ, Th1) ([1]; Pt ≠ 1): (4.8% ± 7.2)
mean % of cytokine producing CD4 T cells, in positive microcultures (IL4, Th2) ([1]; Pt ≠ 1): (0.8% ± 0.3)
mean % of cytokine producing CD4 T cells, in positive microcultures (IFN-γ, Th1) ([1]; Pt ≠ 2): (0.6% ± 0.02)
mean % of cytokine producing CD4 T cells, in positive microcultures (IFN-γ, Th1) ([1]; Pt ≠ 3): (1.9% ± 1.3)
mean % of cytokine producing CD4 T cells, in positive microcultures (IL4, Th2) ([1]; Pt ≠ 5): (0.8%)
mean % of cytokine producing CD4 T cells, in positive microcultures (IFN-γ, Th1) ([1]; Pt ≠ 7): (2.9% ± 3.5)
mean % of cytokine producing CD4 T cells, in positive microcultures (IL4, Th2) ([1]; Pt ≠ 7): (1.5% ± 0.7)
mean % of cytokine producing CD4 T cells, in positive microcultures (IFN-γ, Th1) ([1]; Pt ≠ 8): (0.5%)
mean % of cytokine producing CD4 T cells, in positive microcultures (IL4, Th2) ([1]; Pt ≠ 8): (0.6%)
mean % of cytokine producing CD4 T cells, in positive microcultures (IL4, Th2) ([1]; Pt ≠ 9): (0.7% ± 0.15)
Th1 responses, share of tested microcultures ([1]; of 576 tested microcultures, melanoma patients): 9.6%
melanoma patients with CD4 specific responses (mainly Th1, IFN-g production) ([1]; responding/tested patients): 5/9
melanoma patients with Th2 responses ([1]; responding/tested patients, IL4): 5/9

PSEGAACPPWHPSERISSTL [MELOE-118-37]
mean % of TNF-α producing CD4 T cells, in positive microcultures ([2]; donor HD17): (3% ± 0.7)
healthy donors in whom CD4 responses against the region were detected [2]: 2/7

PWHPSERISSTLNDECWPASL [MELOE-126-46]
mean % of TNF-α producing CD4 T cells, in positive microcultures ([2]; donor HD22): (1% ± 0.1)
healthy donors in whom CD4 responses against the region were detected [2]: 4 out of 7
Cytokine profile: GM-CSF [3, 6]: GM-CSF ^high
Cytokine profile: IFN [3, 6]: IFN ^high
Cytokine profile: IL2 [3, 6]: IL2 ^high
Cytokine profile: IL4 [3, 6]: IL4 ^high
Cytokine profile: IL5 [3, 6]: IL5 ^low
Cytokine profile: IL10 [3, 6]: IL10 ^neg
Cytokine profile: IL13 [3, 6]: IL13 ^high
Cytokine profile: TNF ([3]; clone 4E2, cognate peptide 10 μM, 5 hours, autopresentation): TNF ^high
HLA-restricting element of the peptide-specific T cell clone [4]: DQβ1*0201

RISSTLNDECWPA [Peptide 32-44]
recognition by T cell clone (TNF-α production) ([3]; T cell clone 4E2, compared with 31-44): recognized to a lower extent

SREQFLPSEGAAC [MELOE-112-24]
recognition by T cell clone (TNF-α production) [5]: optimal shorter peptides

TSREQFLPSEGAA [MELOE-111-23]
recognition by T cell clone (TNF-α production) [5]: optimal shorter peptides
